Laboratory results as given in patent US4317821A, “Maytansinoids, their use and pharmaceutical compositions thereof” (Takeda Chemical Industries, Ltd., priority 1979, dated 1982).
Converted amounts (≈) assume the structure as drawn.

Assays:
[1] = system: melanoma B-16 tumor cells; assay: Antitumor activity: life span prolongation in mice intraperitoneally transplanted with melanoma B-16 (NCI-protocol 1,300); type: in vivo; conditions: intraperitoneally once daily for 9 consecutive days
Protocol: Therapeutic tests were carried out in mice according to NCI-protocol 1,300, Cancer Chemother, Reports, Part 3, 1972, Vol. 3, No. 2, in which melanoma B-16 tumor cells had been intraperitoneally transplanted, compound (I) being administered intraperitoneally once daily for 9 consecutive days.

[2] = system: Tetrahymena pyriformis W; assay: Antiprotozoal activity: growth inhibition by serial dilution method; type: cell-based; conditions: 28° C., 44 to 48 hours, pH 7.0 medium
Protocol: Antiprotozoal activity of compound (I) was assayed with Tetrahymena pyriformis W as the test organism and a medium composed of 20 g tryptose-peptone (Difco Co.), 1 g yeast extract, 2 g glucose, 1000 ml distilled water, 10 ml 1 M phosphate buffer (pH 7.0) as the assay medium. The microorganism was incubated at 28° C. for 44 to 48 hours and the growth inhibitory activity of compound (I) was assayed by the serial dilution method.

SMILES: COc1cc2cc(c1Cl)N(C)C(=O)CC(OC(=O)C(O)c1ccccc1)C1(C)OC1C(C)C1CC(O)(NC(=O)O1)C(OC)C=CC=C(C)C2 (single isomer, unassigned) [maytansinol 3-α-hydroxyphenylacetate]
- Antitumor activities B-16 (T/C %) ([1]; dose 100 μg/kg): 178%
- Antitumor activities B-16 (T/C %) ([1]; dose 200 μg/kg): 208%
- Antitumor activities B-16 (T/C %) ([1]; dose 400 μg/kg): 247%
- Antitumor activities B-16 (T/C %) ([1]; dose 800 μg/kg): 217%

SMILES: COc1cc2cc(c1Cl)N(C)C(=O)CC(OC(=O)C(OC(C)=O)c1ccccc1)C1(C)OC1C(C)C1CC(O)(NC(=O)O1)C(OC)C=CC=C(C)C2 (stereo not drawn) [Maytansinol 3-α-acetoxyphenylacetate, maytansinol 3-(α-acetoxyphenyl)acetate]
- MIC [2]: < 2 µg/mL
- Antitumor activities B-16 (T/C %) ([1]; dose 3.125 μg/kg): 181%
- Antitumor activities B-16 (T/C %) ([1]; dose 6.25 μg/kg): 260%
- Antitumor activities B-16 (T/C %) ([1]; dose 12.5 μg/kg): 161%

SMILES: COc1cc2cc(c1Cl)N(C)C(=O)CC(OC(=O)C(COC(C)=O)c1ccccc1)C1(C)OC1C(C)C1CC(O)(NC(=O)O1)C(OC)C=CC=C(C)C2 (stereo not drawn) [maytansinol 3-α-acetoxymethylphenylacetate]
- MIC [2]: 1 to 2 µg/mL (≈ 1.32 to 2.65 µM)
